# Laboratory results published in publication PMC8433531 (Proceedings of the National Academy of Sciences of the …, 2021).
# Assays:
# SARS-CoV-2 [1] = assay type: cell-based; details: for antiviral activity against SARS-CoV-2 in iAECs: iAEC2
# SARS-CoV-2 [2] = test: Hit validation across cell systems; assay type: cell-based; details: Huh7, LNCaP, Caco-2, Vero E6, iAEC2
# SARS-CoV-2 [3] = test: microbe, parasite or virus in culture; assay type: cell-based; details: Severe acute respiratory syndrome coronavirus 2, Huh-7, 48 h
# SARS-CoV-2 [4] = assay type: cell-based
# SARS-CoV-2 [5] = assay type: cell-based; details: Huh7, MOI of 1, 1,000 nM, 24 and 48 h p.i., versus untreated
# SARS-CoV-2 [6] = details: cited from earlier work
# SARS-CoV-2 [7] = test: SARS-CoV-2 infection of Caco-2 cells with MEK inhibitors; assay type: cell-based; details: Caco-2, 10 µM
# SARS-CoV-2 [8] = test: Viral binding assay on Huh7 cells; assay type: cell-based; details: lactoferrin 1,250 and 6,250 nM, remdesivir 10 nM, NaClO3 7 d
compound,measurement,setting,value
CCC(CC)COC(=O)[C@H](C)N[P@](=O)(OC[C@H]1O[C@@](C#N)(c2ccc3c(N)ncnn23)[C@H](O)[C@@H]1O)Oc1ccccc1 [Remdesivir],antiviral activity at high MOI,SARS-CoV-2 [1],retained antiviral activity
same,antiviral activity against SARS-CoV-2 in iAECs,SARS-CoV-2 [1],dose-responsive antiviral activity
same,efficacy across all tested cell systems,SARS-CoV-2 [2],maintained efficacy across all tested cell systems
same,IC50,SARS-CoV-2 [3],6.7 nM
O=C(c1ccc(F)c(F)c1Nc1ccc(I)cc1F)N1CC(O)([C@@H]2CCCCN2)C1 [cobimetinib],increase of viral infection,SARS-CoV-2 [4],greater than twofold increase
same,percentage of viral RNA-positive cells,SARS-CoV-2 [5],"increased at 48 h p.i., but not at 24 h p.i."
CC(C)/N=c1\cc2n(-c3ccc(Cl)cc3)c3ccccc3nc-2cc1Nc1ccc(Cl)cc1 [CLOFAZIMINE],antiviral activity against SARS-CoV-2 in iAECs,SARS-CoV-2 [1],dose-responsive antiviral activity
same,viral infection in a hamster model of disease,SARS-CoV-2 [6],block viral infection
CC(C)[N+]1(C)[C@@H]2CC[C@H]1C[C@@H](OC(=O)C(CO)c1ccccc1)C2 (some centres unmarked) [Ipratropium Bromide],antiviral activity against SARS-CoV-2 in iAECs,SARS-CoV-2 [1],dose-responsive antiviral activity
same,efficacy across all tested cell systems,SARS-CoV-2 [2],maintained efficacy across all tested cell systems
CC(=O)Nc1cccc(-n2c(=O)n(C3CC3)c(=O)c3c(Nc4ccc(I)cc4F)n(C)c(=O)c(C)c32)c1 [trametinib],increase of viral infection,SARS-CoV-2 [4],greater than twofold increase
same,exacerbation of infection,SARS-CoV-2 [7],exacerbation effect was observed
CCN(CC)CCCC(C)Nc1ccnc2cc(Cl)ccc12 (centres unmarked) [chloroquine],concentrations at which efficacious,"SARS-CoV-2 [4]; Huh7, dose-response confirmation",above 1 µM
Cc1cc(OCCN2CCOCC2)nn1-c1ccc2ccccc2c1 [S1RA],antiviral activity at high MOI,SARS-CoV-2 [1],retained antiviral activity
same,antiviral activity against SARS-CoV-2 in iAECs,SARS-CoV-2 [1],dose-responsive antiviral activity
CCc1nc(C(N)=O)c(Nc2ccc(N3CCC(N4CCN(C)CC4)CC3)c(OC)c2)nc1NC1CCOCC1 [Gilteritinib],antiviral activity against SARS-CoV-2 in iAECs,SARS-CoV-2 [1],dose-responsive antiviral activity
CC(NC(=O)[C@H](Cc1ccccc1)NC(=O)OCc1ccccc1)C(=O)CF (some centres unmarked) [Z-FA-FMK],efficacy across all tested cell systems,SARS-CoV-2 [2],maintained efficacy across all tested cell systems
O=C(NC1CCN(CCCCC2(C(=O)NCC(F)(F)F)c3ccccc3-c3ccccc32)CC1)c1ccccc1-c1ccc(C(F)(F)F)cc1 [Lomitapide],antiviral activity against SARS-CoV-2 in iAECs,SARS-CoV-2 [1],dose-responsive antiviral activity
same,efficacy across all tested cell systems,SARS-CoV-2 [2],maintained efficacy across all tested cell systems
[Na+].[O-][Cl+2]([O-])[O-] [NaClO3],SARS-CoV-2 attachment to Huh7 cells,SARS-CoV-2 [8],reduced
"transferrin: transferrin (Sigma-Aldrich; T2036), control to rule out iron chelation",antiviral activity (iron chelation control),"SARS-CoV-2 [4]; Huh7, 6,250 nM",inactive
Cn1cnc2c(F)c(Nc3ccc(Br)cc3F)c(C(=O)NOCCO)cc21 [binimetinib],increase of viral infection,SARS-CoV-2 [4],greater than twofold increase
same,exacerbation of infection,SARS-CoV-2 [7],exacerbation effect was observed
